For data set [1], the target named is T1, human calcitonin receptor (Homo sapiens, UniProt P30988).
T1 construct: expressed in transfected cells; host or cells: BHK570
T1 sequence (P30988 25-474): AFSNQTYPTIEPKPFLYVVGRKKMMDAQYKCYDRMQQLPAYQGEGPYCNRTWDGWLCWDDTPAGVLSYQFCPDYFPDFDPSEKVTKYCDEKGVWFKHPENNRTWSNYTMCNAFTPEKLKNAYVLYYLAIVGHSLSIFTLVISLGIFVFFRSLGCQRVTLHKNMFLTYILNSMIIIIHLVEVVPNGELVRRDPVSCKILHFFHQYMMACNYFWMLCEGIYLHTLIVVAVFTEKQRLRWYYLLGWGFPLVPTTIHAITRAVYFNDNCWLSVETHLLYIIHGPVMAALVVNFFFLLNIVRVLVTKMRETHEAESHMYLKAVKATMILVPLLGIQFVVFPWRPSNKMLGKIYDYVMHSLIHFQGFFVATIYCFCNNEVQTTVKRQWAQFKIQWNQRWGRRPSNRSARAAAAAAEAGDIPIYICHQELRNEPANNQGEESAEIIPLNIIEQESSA
The data set is described as follows: Assay (II)a functional CRE-luciferase assay, human calcitonin receptor. Format: cell-based. To be noted: Table 7; human calcitonin (CTa) receptor.

The nature of data set [2]: Assay (IV) determination of solubility. Format: physicochemical. The method, boiled down: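 Solubility was profiled across pH 3.0–8.0 after 18 hours at room temperature: a ~500 nmol/ml aqueous polypeptide solution was diluted 1:1 into 100 mM glycylglycine or bistrispropane buffers. After centrifugation, HPLC gave the dissolved concentration.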
Data set [3] is described as follows: Assay (III) ThT fibrillation assay for physical stability. The format is physicochemical. Summed up: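 Freshly prepared formulations, pH-adjusted, with 1 μM ThT; four or eight replicates incubated at 37 °C under 960 rpm orbital shaking. Fluorescence (ex 444/em 485 nm) read every 20 min; […]. Peptide concentration measured by RP-HPLC before and after the run.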

In data set [4] the target is T2, human amylin receptor (amylin 3(a) receptor: human calcitonin receptor + RAMP-3) (Homo sapiens, UniProt O60896+P30988).
T2 construct: expressed in transfected cells; host or cells: BHK570
T2 sequence (P30988 25-474): T1 sequence (P30988 25-474)
T2 sequence (O60896 24-148 partner): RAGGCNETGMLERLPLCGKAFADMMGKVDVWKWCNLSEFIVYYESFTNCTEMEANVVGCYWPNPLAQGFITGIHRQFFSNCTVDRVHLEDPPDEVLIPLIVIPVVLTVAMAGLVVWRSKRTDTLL
The data set is described as follows: Assay (II)a functional CRE-luciferase assay, human amylin receptor. Format: cell-based. Conditions: Table 2; BHK amylin 3(a)-receptor/CRE-luc cells.

[5] abbreviates: bistrispropane buffer, pH 6, pH 6.0, read-out: Solubility pH 6.0.
Setting [6] is: bistrispropane buffer, pH 6.5, pH 6.5, read-out: Solubility pH 6.5.
Where [7] appears, read: bistrispropane buffer, pH 7, pH 7.0, 18 hours at room temperature, Table 3, read-out: Solubility pH 7.0.
The mark [8] stands for this setting: bistrispropane buffer, pH 7, pH 7.0, read-out: Solubility pH 7.0.
Setting [9] is: bistrispropane buffer, pH 7.5, pH 7.5, read-out: Solubility pH 7.5.
Setting [10] is: bistrispropane buffer, pH 8, pH 8.0, read-out: Solubility pH 8.0.
Setting [11] is: glycylglycine buffer, pH 3, pH 3.0, read-out: Solubility pH 3.0.
The mark [12] stands for this setting: glycylglycine buffer, pH 4, pH 4.0, 18 hours at room temperature, Table 2, read-out: Solubility pH 4.0.
Setting [13] is: glycylglycine buffer, pH 4, pH 4.0, read-out: Solubility pH 4.0.
The mark [14] stands for this setting: glycylglycine buffer, pH 5, pH 5.0, read-out: Solubility pH 5.0.

Structures are written as SMILES. Converted amounts (≈) assume the structure as drawn. Read-outs that look alike come from different tables or passages of the source. Starred links: 1 amine or outer side, 2 acyl side, 3 side chain; linkers in the order of their positions; H or OH if unused. Positions of bridges follow the written chain, without caps; N, C: chain ends. Residues, ends and D or L forms follow the SMILES beside them. *: point of attachment. C20 diacid = O=C(O)CCCCCCCCCCCCCCCCCCC(=O)*; γGlu = O=C(O)[C@H](CCC(=O)[*:2])N[*:1]

On to `CC[C@H](C)[C@H](NC(=O)[C@@H]1CCCN1C(=O)CNC(=O)[C@H](Cc1ccccc1)NC(=O)[C@H](CC(N)=O)NC(=O)[C@H](CCC(N)=O)NC(=O)[C@H](CO)NC(=O)[C@H](CO)NC(=O)[C@H](Cc1c[nH]cn1)NC(=O)[C@H](Cc1c[nH]cn1)NC(=O)[C@H](CC(C)C)NC(=O)[C@H](Cc1ccccc1)NC(=O)[C@H](CCC(=O)O)NC(=O)[C@H](C)NC(=O)[C@H](CC(C)C)NC(=O)[C@H](CCCNC(=N)N)NC(=O)[C@H](CCC(N)=O)NC(=O)[C@@H](NC(=O)[C@H](C)NC(=O)[C@@H]1CSSC[C@H](NC(=O)CNC(=O)CC[C@H](NC(=O)CCCCCCCCCCCCCCCCCCC(=O)O)C(=O)O)C(=O)N[C@@H](CC(N)=O)C(=O)N[C@@H]([C@@H](C)O)C(=O)N[C@@H](C)C(=O)N[C@@H]([C@@H](C)O)C(=O)N1)[C@@H](C)O)C(=O)N[C@@H](CC(C)C)C(=O)N1CCC[C@H]1C(=O)N1CCC[C@H]1C(=O)N[C@H](C(=O)N[C@@H](CC(N)=O)C(=O)N[C@H](C(=O)NCC(=O)N[C@@H](CO)C(=O)N[C@@H](CCC(N)=O)C(=O)N[C@H](C(=O)N1CCC[C@H]1C(N)=O)[C@@H](C)O)C(C)C)[C@@H](C)O` [Example 137, N-alpha-[(S)-4-Carboxy-4-(19-carboxynonadecanoylamino)butyryl]-[Gly1,Glu14,His17,Gln21,Gln35,Pro37]-pramlintide] ({C20 diacid-γGlu}-GCNTATCATQRLAEFLHHSSQNFGPILPPTNVGSQTP-NH2; disulfide 2-7), for which the EC50 in data set [1] is 0.072 nM; in data set [4], 0.121 nM. For the same compound, the solubility at 18 h in data set [2] (setting [5]) was 192 µM (≈ 835 µg/mL); in data set [2] (setting [6]) it was more than 200 µM; in data set [2] (setting [7]), more than 200 µM; in data set [2] (bistrispropane buffer, pH 7, pH 7.0, Table 8, read-out: Solubility pH 7.0) it was more than 200 µM; in data set [2] (setting [8]), more than 200 µM; in data set [2] (setting [9]), more than 200 µM. Besides, the solubility at 18 h in data set [2] (setting [10]), in data set [2] (setting [11]), in data set [2] (setting [12]), in data set [2] (setting [13]) and in data set [2] (setting [14]) was more than 200 µM throughout. The “ThT pH 4.0 lag time” value in data set [3] (Table 8) and in data set [3] (ThT fibrillation assay) was 29 h throughout. The “ThT pH 4.0 lag time (h)” value in data set [3] (ThT fibrillation assay) is 29 h.
Regarding `CC[C@H](C)[C@H](NC(=O)[C@@H]1CCCN1C(=O)CNC(=O)[C@H](Cc1ccccc1)NC(=O)[C@H](CC(N)=O)NC(=O)[C@H](CCC(N)=O)NC(=O)[C@H](CO)NC(=O)[C@H](CO)NC(=O)[C@H](Cc1c[nH]cn1)NC(=O)[C@@H](NC(=O)[C@H](CC(C)C)NC(=O)[C@H](Cc1ccccc1)NC(=O)[C@H](CCC(=O)O)NC(=O)[C@H](C)NC(=O)[C@H](CC(C)C)NC(=O)[C@H](CCCNC(=N)N)NC(=O)[C@H](CCC(N)=O)NC(=O)[C@@H](NC(=O)[C@H](C)NC(=O)[C@@H]1CSSC[C@H](NC(=O)[C@H](CCC(=O)O)NC(=O)CC[C@H](NC(=O)CCCCCCCCCCCCCCCCCCC(=O)O)C(=O)O)C(=O)N[C@@H](CC(N)=O)C(=O)N[C@@H]([C@@H](C)O)C(=O)N[C@@H](C)C(=O)N[C@@H]([C@@H](C)O)C(=O)N1)[C@@H](C)O)C(C)C)C(=O)N[C@@H](CC(C)C)C(=O)N1CCC[C@H]1C(=O)N1CCC[C@H]1C(=O)N[C@H](C(=O)N[C@@H](CC(N)=O)C(=O)N[C@H](C(=O)NCC(=O)N[C@@H](CO)C(=O)N[C@@H](CCC(N)=O)C(=O)N[C@H](C(=O)N1CCC[C@H]1C(N)=O)[C@@H](C)O)C(C)C)[C@@H](C)O` [Example 138, N-alpha-[(S)-4-Carboxy-4-(19-carboxynonadecanoylamino)butyryl]-[Glu1,Glu14,Gln21,Gln35,Pro37]-pramlintide] ({C20 diacid-γGlu}-ECNTATCATQRLAEFLVHSSQNFGPILPPTNVGSQTP-NH2; disulfide 2-7), the EC50 in data set [1] was found to be 0.496 nM; in data set [4] it was 1.51 nM. For the same compound, the solubility at 18 h in data set [2] (setting [5]), in data set [2] (setting [6]), in data set [2] (setting [7]), in data set [2] (setting [8]), in data set [2] (setting [9]) and in data set [2] (setting [10]) was more than 200 µM each time. Also, the solubility at 18 h in data set [2] (setting [11]), in data set [2] (setting [12]), in data set [2] (setting [13]) and in data set [2] (setting [14]) was more than 200 µM throughout. In addition, the “ThT pH 4.0 lag time (h)” value in data set [3] (ThT fibrillation assay) is 1.3 h.
For `CC[C@H](C)[C@H](NC(=O)[C@@H]1CCCN1C(=O)CNC(=O)[C@H](Cc1ccccc1)NC(=O)[C@H](CC(N)=O)NC(=O)[C@H](CCC(N)=O)NC(=O)[C@H](CO)NC(=O)[C@H](CO)NC(=O)[C@H](Cc1c[nH]cn1)NC(=O)[C@@H](NC(=O)[C@H](CC(C)C)NC(=O)[C@H](Cc1ccccc1)NC(=O)[C@H](CCC(=O)O)NC(=O)[C@H](C)NC(=O)[C@H](CC(C)C)NC(=O)[C@H](CCCNC(=N)N)NC(=O)[C@H](CCC(N)=O)NC(=O)[C@@H](NC(=O)[C@H](C)NC(=O)[C@@H]1CSSC[C@H](NC(=O)[C@H](CCCCN)NC(=O)CC[C@H](NC(=O)CCCCCCCCCCCCCCCCCCC(=O)O)C(=O)O)C(=O)N[C@@H](CC(N)=O)C(=O)N[C@@H]([C@@H](C)O)C(=O)N[C@@H](C)C(=O)N[C@@H]([C@@H](C)O)C(=O)N1)[C@@H](C)O)C(C)C)C(=O)N[C@@H](CC(C)C)C(=O)N1CCC[C@H]1C(=O)N1CCC[C@H]1C(=O)N[C@H](C(=O)N[C@@H](CC(N)=O)C(=O)N[C@H](C(=O)NCC(=O)N[C@@H](CO)C(=O)N[C@@H](CCC(N)=O)C(=O)N[C@H](C(=O)N1CCC[C@H]1C(N)=O)[C@@H](C)O)C(C)C)[C@@H](C)O` [Example 139, N-alpha-[(S)-4-Carboxy-4-(19-carboxynonadecanoylamino)butyryl]-[Glu14,Gln21,Gln35,Pro37]-pramlintide] ({C20 diacid-γGlu}-KCNTATCATQRLAEFLVHSSQNFGPILPPTNVGSQTP-NH2; disulfide 2-7 (inferred)), the EC50 in data set [1] was 0.0585 nM; in data set [4] it was 0.107 nM. Besides, the solubility at 18 h in data set [2] (setting [5]), in data set [2] (setting [6]), in data set [2] (setting [7]), in data set [2] (setting [8]), in data set [2] (setting [9]) and in data set [2] (setting [10]) was more than 200 µM each time. For the same compound, the solubility at 18 h in data set [2] (setting [11]), in data set [2] (setting [12]), in data set [2] (setting [13]) and in data set [2] (setting [14]) was more than 200 µM each time. For the same compound, the “ThT pH 4.0 lag time (h)” value in data set [3] (ThT fibrillation assay) was 23.6 h.

The EC50 is the concentration that produces a half-maximal response. As a reminder, the solubility is the dissolved amount per volume that the medium holds.

Source of the values: patent US8722849B2, “Polypeptides” (Novo Nordisk A/S, priority 2011, dated 2014).
